#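 Grown in 96-well plates, cells were treated for 48 hours with each compound at five concentrations. Insufficient inhibition: endpoint recorded as highest concentration tested. The concentration for 50% growth inhibition is given as GI50.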 The source made the active and inactive calls. No stated cut-off is given here; in the data, active = GI50 up to about 1.1 µM and inactive = higher.
# Key:
# Assay in all cases: NCI tumour cell line growth inhibition, 48 h
# [1] = tested on: 786-0
# [2] = tested on: PC-3
# [3] = tested on: DU-145
# [4] = tested on: UACC-257
# [5] = tested on: SW-620
# [6] = tested on: A498
# [7] = tested on: NCI-H522
# [8] = tested on: HCT-15
# [9] = tested on: OVCAR-3
# [10] = tested on: Malme-3M
# [11] = tested on: HL-60
# [12] = tested on: MDA-MB-231
# [13] = tested on: U-251
# [14] = tested on: MDA-N
# [15] = tested on: Hs-578T
# [16] = tested on: NCI-H23
# [17] = tested on: IGROV-1
# [18] = tested on: NCI-H226
# [19] = tested on: KM12
# [20] = tested on: SF-295
# [21] = tested on: SF-268
# [22] = tested on: HT-29
# [23] = tested on: UACC-62
# [24] = tested on: A549
# [25] = tested on: M14
# [26] = tested on: SNB-19
# [27] = tested on: SNB-75
# [28] = tested on: UO-31
# [29] = tested on: OVCAR-4
# [30] = tested on: CCRF-CEM
# [31] = tested on: BT-549
# [32] = tested on: TK-10
# [33] = tested on: SK-MEL-5
# [34] = tested on: T47D
# [35] = tested on: K562
# [36] = tested on: RXF 393
# [37] = tested on: HOP-62
# [38] = tested on: SK-MEL-2
# [39] = tested on: ACHN
# [40] = tested on: COLO 205
# [41] = tested on: EKVX
# [42] = tested on: LOX IMVI
# [43] = tested on: SN12C
# [44] = tested on: OVCAR-5
# [45] = tested on: SK-OV-3
# [46] = tested on: HCC 2998
# [47] = tested on: OVCAR-8
# [48] = tested on: SF-539
# [49] = tested on: CAKI-1
# [50] = tested on: NCI/ADR-RES
# [51] = tested on: RPMI-8226
# [52] = tested on: MDA-MB-435
# [53] = tested on: SK-MEL-28
# [54] = tested on: NCI-H460
# [55] = tested on: HOP-92
# [56] = tested on: SR
# [57] = tested on: HCT-116
# [58] = tested on: MCF7
# [59] = tested on: MOLT-4
compound,measurement,setting,value
C[C@]12CCC(=O)C=C1CC[C@@H]1[C@@H]2[C@@H](O)C[C@@]2(C)[C@H]1CC[C@]2(O)C(=O)COC(=O)C1CCCC1,GI50,[1],> 100 µM (inactive)
same,GI50,[2],> 100 µM (inactive)
same,GI50,[3],> 100 µM (inactive)
same,GI50,[4],> 100 µM (inactive)
same,GI50,[5],> 100 µM (inactive)
same,GI50,[6],> 100 µM (inactive)
same,GI50,[7],> 100 µM (inactive)
same,GI50,[8],> 100 µM
same,GI50,[9],> 100 µM (inactive)
same,GI50,[10],> 100 µM (inactive)
same,GI50,[11],> 100 µM (inactive)
same,GI50,[12],> 100 µM (inactive)
same,GI50,[13],> 100 µM (inactive)
same,GI50,[14],> 100 µM (inactive)
same,GI50,[15],> 100 µM (inactive)
same,GI50,[16],> 100 µM (inactive)
same,GI50,[17],> 100 µM (inactive)
same,GI50,[18],> 100 µM (inactive)
same,GI50,[19],> 100 µM (inactive)
same,GI50,[20],> 100 µM (inactive)
same,GI50,[21],> 100 µM (inactive)
same,GI50,[22],67.8 µM (inactive)
same,GI50,[23],> 100 µM (inactive)
same,GI50,[24],58.2 µM (inactive)
same,GI50,[25],> 100 µM (inactive)
same,GI50,[26],> 100 µM (inactive)
same,GI50,[27],> 100 µM (inactive)
same,GI50,[28],> 100 µM (inactive)
same,GI50,[29],> 100 µM (inactive)
same,GI50,[30],7.73 µM (inactive)
same,GI50,[31],> 100 µM (inactive)
same,GI50,[32],> 100 µM (inactive)
same,GI50,[33],> 100 µM (inactive)
same,GI50,[34],> 100 µM (inactive)
same,GI50,[35],> 100 µM (inactive)
same,GI50,[36],> 100 µM (inactive)
same,GI50,[37],> 100 µM (inactive)
same,GI50,[38],> 100 µM (inactive)
same,GI50,[39],> 100 µM (inactive)
same,GI50,[40],> 100 µM (inactive)
same,GI50,[41],32.7 µM (inactive)
same,GI50,[42],> 100 µM (inactive)
same,GI50,[43],> 100 µM (inactive)
same,GI50,[44],> 100 µM (inactive)
same,GI50,[45],> 100 µM (inactive)
same,GI50,[46],> 100 µM (inactive)
same,GI50,[47],> 100 µM (inactive)
same,GI50,[48],> 100 µM (inactive)
same,GI50,[49],> 100 µM (inactive)
same,GI50,[50],> 100 µM (inactive)
same,GI50,[51],1.63 µM (inactive)
same,GI50,[52],> 100 µM (inactive)
same,GI50,[53],> 100 µM (inactive)
same,GI50,[54],87.3 µM (inactive)
same,GI50,[55],> 100 µM (inactive)
same,GI50,[56],43.3 µM (inactive)
same,GI50,[57],> 100 µM (inactive)
same,GI50,[58],> 100 µM (inactive)
O=c1oc2c(ccc3c(O)cccc32)c2c1CCCC2,GI50,[1],33.4 µM (inactive)
same,GI50,[2],> 100 µM (inactive)
same,GI50,[3],> 100 µM (inactive)
same,GI50,[4],> 100 µM (inactive)
same,GI50,[5],> 100 µM (inactive)
same,GI50,[6],27.7 µM (inactive)
same,GI50,[7],40 µM (inactive)
same,GI50,[9],> 100 µM (inactive)
same,GI50,[10],68.9 µM (inactive)
same,GI50,[11],> 100 µM (inactive)
same,GI50,[12],17.4 µM (inactive)
same,GI50,[13],15 µM (inactive)
same,GI50,[14],> 100 µM (inactive)
same,GI50,[15],7.46 µM (inactive)
same,GI50,[16],26.9 µM (inactive)
same,GI50,[17],> 100 µM (inactive)
same,GI50,[18],> 100 µM (inactive)
same,GI50,[19],> 100 µM (inactive)
same,GI50,[20],14.5 µM (inactive)
same,GI50,[21],15 µM (inactive)
same,GI50,[22],> 100 µM (inactive)
same,GI50,[23],4.71 µM (inactive)
same,GI50,[24],72.3 µM (inactive)
same,GI50,[25],> 100 µM (inactive)
same,GI50,[26],27.7 µM (inactive)
same,GI50,[27],4.85 µM (inactive)
same,GI50,[28],21.1 µM (inactive)
same,GI50,[29],> 100 µM (inactive)
same,GI50,[30],> 100 µM (inactive)
same,GI50,[31],15.1 µM (inactive)
same,GI50,[32],> 100 µM (inactive)
same,GI50,[33],47.2 µM (inactive)
same,GI50,[34],80.9 µM (inactive)
same,GI50,[35],> 100 µM (inactive)
same,GI50,[59],> 100 µM (inactive)
same,GI50,[36],14.5 µM (inactive)
same,GI50,[37],18.9 µM (inactive)
same,GI50,[38],3.52 µM (inactive)
same,GI50,[39],26.8 µM (inactive)
same,GI50,[40],> 100 µM (inactive)
same,GI50,[41],33.8 µM (inactive)
same,GI50,[42],16.7 µM (inactive)
same,GI50,[43],> 100 µM (inactive)
same,GI50,[44],> 100 µM (inactive)
same,GI50,[46],5.61 µM (inactive)
same,GI50,[47],30.6 µM (inactive)
same,GI50,[48],22.2 µM (inactive)
same,GI50,[49],32.2 µM (inactive)
same,GI50,[50],46 µM (inactive)
same,GI50,[51],> 100 µM (inactive)
same,GI50,[52],> 100 µM (inactive)
same,GI50,[53],> 100 µM (inactive)
same,GI50,[54],45.2 µM (inactive)
same,GI50,[55],16.6 µM (inactive)
same,GI50,[56],4.55 µM (inactive)
same,GI50,[57],> 100 µM (inactive)
same,GI50,[58],42.2 µM (inactive)
C=CCN1C(N)=C(C#N)C(C#N)(C#N)C1CCC (stereo not drawn),GI50,[1],> 100 µM (inactive)
same,GI50,[2],> 100 µM (inactive)
same,GI50,[3],> 100 µM (inactive)
same,GI50,[4],> 100 µM (inactive)
same,GI50,[5],> 100 µM (inactive)
same,GI50,[6],> 100 µM (inactive)
same,GI50,[7],> 100 µM (inactive)
same,GI50,[8],> 100 µM
same,GI50,[9],> 100 µM (inactive)
same,GI50,[10],> 100 µM (inactive)
same,GI50,[11],> 100 µM (inactive)
same,GI50,[12],> 100 µM (inactive)
same,GI50,[13],> 100 µM (inactive)
same,GI50,[14],> 100 µM (inactive)
same,GI50,[15],> 100 µM (inactive)
same,GI50,[16],> 100 µM (inactive)
same,GI50,[17],> 100 µM (inactive)
same,GI50,[18],> 100 µM (inactive)
same,GI50,[19],> 100 µM (inactive)
same,GI50,[20],> 100 µM (inactive)
same,GI50,[21],> 100 µM (inactive)
same,GI50,[22],> 100 µM (inactive)
same,GI50,[23],> 100 µM (inactive)
same,GI50,[24],> 100 µM (inactive)
same,GI50,[25],> 100 µM (inactive)
same,GI50,[26],> 100 µM (inactive)
same,GI50,[27],> 100 µM (inactive)
same,GI50,[28],75.2 µM (inactive)
same,GI50,[29],> 100 µM (inactive)
same,GI50,[30],> 100 µM (inactive)
same,GI50,[31],> 100 µM (inactive)
same,GI50,[32],> 100 µM (inactive)
same,GI50,[33],81.7 µM (inactive)
same,GI50,[34],54.8 µM (inactive)
same,GI50,[35],> 100 µM (inactive)
same,GI50,[59],> 100 µM (inactive)
same,GI50,[36],> 100 µM (inactive)
same,GI50,[37],> 100 µM (inactive)
same,GI50,[38],> 100 µM (inactive)
same,GI50,[39],> 100 µM (inactive)
same,GI50,[40],> 100 µM (inactive)
same,GI50,[41],47.4 µM (inactive)
same,GI50,[42],> 100 µM (inactive)
same,GI50,[43],> 100 µM (inactive)
same,GI50,[44],> 100 µM (inactive)
same,GI50,[45],> 100 µM (inactive)
same,GI50,[46],> 100 µM (inactive)
same,GI50,[47],> 100 µM (inactive)
same,GI50,[48],> 100 µM (inactive)
same,GI50,[49],> 100 µM (inactive)
same,GI50,[50],> 100 µM (inactive)
same,GI50,[51],> 100 µM (inactive)
same,GI50,[52],> 100 µM (inactive)
same,GI50,[54],> 100 µM (inactive)
same,GI50,[55],52.1 µM (inactive)
same,GI50,[56],> 100 µM (inactive)
same,GI50,[57],> 100 µM (inactive)
same,GI50,[58],> 100 µM (inactive)

# — ChEMBL document CHEMBL1201862, “PubChem BioAssay data set” (2004)
